Assay results reported in patent publication US5545640A, “Protease inhibiting succinic acid derivatives” (Bio-Mega/Boehringer Ingeleheim Research Inc., priority 1995, dated 1996).

These compounds were tested against T1, HIV protease (Human immunodeficiency virus type 1 group M subtype B, UniProt P04585) (assay: biochemical). Conditions: read-out: IC50 (concentration causing 50% inhibition of HIV protease).
T1 construct: an HIV-encoded enzyme known as HIV protease
From the text: The procedure is based on the capacity of the test compound to inhibit enzymatic cleavage by HIV protease of a decapeptide (the substrate) having an amino acid sequence which includes a known HIV protease cleavage site of a HIV polyprotein; see H. G. Krausslich et al., Proc. Natl. Acad. Sci. USA, 86, 807 (1989).
Anderson, S. Rakhit and C. Yoakim in the European patent application 443 560, published Aug. 28, 1991.

IC50 [nM] | Compound
3 | CCC(CC)NC(=O)C[C@@H](C(=O)NC[C@@H](O)[C@H](Cc1ccccc1)NC(=O)[C@H](CC(N)=O)NC(=O)C1Cc2ccccc2N1)C(C)(C)C (stereo partly shown) [Entry 30]

Same assay, conditions: recombinant HIV protease; decapeptide substrate; HPLC assay; read-out: IC50 (concentration causing 50% inhibition of HIV protease)

IC50 [nM] | Compound
9 | CCC(CC)NC(=O)CC(C(=O)NC[C@@H](O)[C@H](Cc1ccccc1)NC(=O)[C@H](CC(N)=O)NC(=O)c1ccc2ccccc2n1)C(C)C (stereo partly shown) [Entry 50]
51 | CCC(CC)OC(=O)CC(C(=O)NC[C@@H](O)[C@H](Cc1ccccc1)NC(=O)[C@H](CC(N)=O)NC(=O)OCc1ccccc1)C(C)(C)C (stereo partly shown) [Entry 47]
14 | CCC(CC)NC(=O)C1CCCCC1C(=O)NC[C@@H](O)[C@H](Cc1ccccc1)NC(=O)[C@@H](NC(=O)OCc1ccccc1)C(C)C (stereo partly shown) [Entry 57]
61 | CCC(CC)NC(=O)C[C@@H](C(=O)NC[C@@H](O)[C@H](Cc1ccc(O)cc1)NC(=O)[C@@H](NC(=O)c1ccc2ccccc2n1)[C@@H](C)O)C(C)(C)C [Entry 62, N^1-(1-ethylpropyl)-N^4 -{3(S)-{[N-(2-quinolylcarbonyl)-threonyl]amino}-2(R)-hydroxy-4-(4-hydroxyphenyl)butyl}-3(R)-tert-butylbutanediamide]
4 | CCC(CC)NC(=O)C[C@@H](C(=O)NC[C@@H](O)[C@H](Cc1ccccc1)NC(=O)[C@H](CC(N)=O)NC(=O)C1Cc2ccccc2CN1)C(C)(C)C (stereo partly shown) [Entry 24]
11 | CCC(CC)NC(=O)C[C@@H](C(=O)NC[C@@H](O)[C@H](Cc1ccccc1)NC(=O)[C@H](CC(N)=O)NC(=O)NCc1ccccc1)C(C)(C)C [Entry 14]
32 | CCC(CC)NC(=O)CC(C(=O)NC[C@@H](O)[C@H](Cc1ccccc1)NC(=O)[C@H](CC(N)=O)NC(=O)OCc1ccccc1)C(C)C (stereo partly shown) [Entry 48]
90 | CCC(CC)NC(=O)C[C@@H](C(=O)NC[C@@H](O)[C@H](Cc1ccccc1)NC(=O)[C@H](CC(=O)O)NC(=O)OC(C)(C)C)C(C)(C)C [Entry 2]
13 | CCC(CC)NC(=O)[C@H](CC(=O)NC[C@@H](O)[C@H](Cc1ccccc1)NC(=O)[C@@H](NC(=O)OCc1ccccc1)C(C)C)C(C)(C)C [Entry 61]
5 | CCC(CC)NC(=O)C[C@@H](C(=O)NC[C@@H](O)[C@H](Cc1ccccc1)NC(=O)[C@@H](NC(=O)c1ccc2ccccc2n1)[C@@H](C)C(=O)O)C(C)(C)C [Entry 22]
32 | CCC(CC)NC(=O)C[C@@H](C(=O)NC[C@@H](O)[C@H](Cc1ccccc1)NC(=O)[C@H](CC(N)=O)NC(=O)C1Cc2ccccc2CN1)C(C)(C)C (stereo partly shown) [Entry 5]
3 | CCC(CC)NC(=O)C[C@@H](C(=O)NC[C@@H](O)[C@H](Cc1ccccc1)NC(=O)[C@@H](NC(=O)c1ccc2ccccc2n1)C1(C(=O)O)CCCC1)C(C)(C)C [Entry 33]
80 | CCC(CC)NC(=O)C[C@@H](C(=O)NC[C@@H](O)[C@H](Cc1ccccc1)NC(=O)[C@@H](NC(=O)OC(C)(C)C)[C@@H](C)C(=O)OCc1ccccc1)C(C)(C)C [Entry 4]
2 | CCC(CC)NC(=O)C[C@@H](C(=O)NC[C@@H](O)[C@H](Cc1ccccc1)NC(=O)[C@H](CC(N)=O)NC(=O)c1ccc2ncccc2c1)C(C)(C)C [Entry 38]
2 | CCC(CC)NC(=O)C[C@@H](C(=O)NC[C@@H](O)[C@H](Cc1ccccc1)NC(=O)[C@H](CC(N)=O)NC(=O)c1cnc2ccccc2c1)C(C)(C)C [Entry 39]
20 | CCC(CC)NC(=O)C[C@@H](C(=O)NC[C@@H](O)[C@H](Cc1ccccc1)NC(=O)[C@H](CC(N)=O)NC(=O)c1nccc2ccccc12)C(C)(C)C [Entry 7]
13 | CCC(CC)NC(=O)C[C@@H](C(=O)NC[C@@H](O)[C@H](Cc1ccccc1)NC(=O)[C@H](CC(N)=O)NC(=O)CCCCc1ccccc1)C(C)(C)C [Entry 12]
19 | CCC(CC)NC(=O)C[C@@H](C(=O)NC[C@@H](O)[C@H](Cc1ccccc1)NC(=O)[C@H](CCC(N)=O)NC(=O)OCc1ccccc1)C(C)(C)C [Entry 8]
5 | CCC(CC)NC(=O)C[C@@H](C(=O)NC[C@@H](O)[C@H](Cc1ccccc1)NC(=O)[C@H](CC(N)=O)NC(=O)CNc1ccccc1)C(C)(C)C [Entry 19]
29 | CCC(CC)NC(=O)C[C@H](C(=O)NC[C@@H](O)[C@H](Cc1ccccc1)NC(=O)[C@@H](NC(=O)OCc1ccccc1)C(C)(C)C)C(C)(C)C [Entry 60]
100 | CCC(CC)NC(=O)C[C@@H](C(=O)NC[C@@H](O)[C@H](Cc1ccccc1)NC(=O)[C@@H](NC(=O)OC(C)(C)C)C(C)(C)C)C(C)(C)C [Entry 1]
46 | CC(C)OC(=O)C[C@@H](C(=O)NC[C@@H](O)[C@H](Cc1ccccc1)NC(=O)[C@@H](NC(=O)c1ccc2ccccc2n1)[C@@H](C)O)C(C)(C)C [Entry 58, 3(R)-tert-butyl-4-{2(R)-hydroxy-4-phenyl-3(S)-{[N-(2-quinolylcarbonyl)threonyl]-amino}butylamino}-4-oxobutyric acid isopropyl ester]
50 | CCC(CC)NC(=O)C(CC(=O)NC[C@@H](O)[C@H](Cc1ccccc1)NC(=O)[C@@H](NC(=O)OCc1ccccc1)C(C)C)CC(C)(C)C (stereo partly shown) [Entry 54]
66 | CC(C)[C@H](NC(=O)OCc1ccccc1)C(=O)N[C@@H](Cc1ccccc1)[C@H](O)CNC(=O)C1CCCCC1C(=O)NCC(C)(C)C (stereo partly shown) [Entry 55]
88 | CCC(CC)NC(=O)C[C@@H](C(=O)NC[C@@H](O)[C@H](Cc1ccccc1)NC(=O)[C@H](CC(N)=O)NC(=O)CCN1CCCCC1)C(C)(C)C [Entry 3]
7 | CCC(CC)NC(=O)C[C@@H](C(=O)NC[C@@H](O)[C@H](Cc1ccccc1)NC(=O)[C@@H](NC(=O)OC(C)(C)C)[C@@H](C)C(=O)O)C(C)(C)C [Entry 16]
29 | CCCC(CCC)NC(=O)C1CCCCC1C(=O)NC[C@@H](O)[C@H](Cc1ccccc1)NC(=O)[C@@H](NC(=O)OCc1ccccc1)C(C)C (stereo partly shown) [Entry 56]
